# Source: patent publication US20030180228A1, “Aerosol container for formulations of salmeterol xinafoate” (priority 2000, published 2003)
# Experiments:
# [1] = Water content of salmeterol xinafoate HFA 134a canisters on storage, ex-valve Karl-Fischer; type: physicochemical
# Description: The water content of the formulation may be determined by conventional Karl Fischer methodology. Typically this involves measuring the total water content of the formulation ex-valve using Couliometric titration.
# (§1) In the experiments below canisters were stored in an inverted orientation. Valves all had 63 μl metering volume. Water content was measured ex-valve using Karl-Fischer methodology.
# (§2) Aluminium canisters fitted with Valois D60 valve and containing 12 g HFA 134a and 6.53 mg salmeterol xinafoate were stored under various conditions of temperature and humidity and the moisture content measured and FPM measured (Andersen Cascade Impactor), with results as follows:
# (§3) Aluminium canisters fitted with Valois DF60 valve and containing 12g HFA 134a and 6.53 mg salmeterol xinafoate were stored under various conditions of temperature and humidity and the moisture content measured and FPM measured (Andersen Cascade Impactor), with results as follows:
# (§4) Aluminium canisters fitted with Bespak valve and containing […] and 6.53 mg salmeterol xinafoate were stored under various conditions of temperature and humidity and the moisture content measured and FPM measured (Andersen Cascade Impactor), with results as follows:
# (§5) Aluminium canisters fitted with Valois DF60 valve and containing 12g HFA134a and 6.53 mg salmeterol xinafoate were stored under various conditions of temperature and humidity and the moisture content measured and FPM measured (Andersen Cascade Impactor), with results as follows: […]
# [2] = Fine particle mass (FPM) by Andersen Cascade Impactor on storage, section A canisters; type: physicochemical
# Description: The FPM of an actuation from an MDI can be calculated based on, for example, the sum of the amount of drug substance deposited on stages 3, 4 and 5 of an Andersen Cascade Impaction stack as determined by standard HPLC analysis.
# as §1, §2, §3, §4, §5
# [3] = (iii) Valois D60 valve, 30° C./60% RH, 3 months
# [4] = (iii) Valois D60 valve, 40° C./75% RH, 1 month
# [5] = (iii) Valois D60 valve, 40° C./75% RH, 3 months
# [6] = (iii) Valois D60 valve, 40° C./75% RH, Initial
# [7] = (iv) Valois DF60 valve, 25° C./60% RH, 1 month
# [8] = (iv) Valois DF60 valve, 25° C./60% RH, 3 months
# [9] = (iv) Valois DF60 valve, 25° C./60% RH, 6 month
# [10] = (iv) Valois DF60 valve, 25° C./60% RH, Initial
# [11] = (iv) Valois DF60 valve, 25° C./75% RH, 1 month
# [12] = (iv) Valois DF60 valve, 25° C./75% RH, 3 months
# [13] = (iv) Valois DF60 valve, 25° C./75% RH, 6 month
# [14] = (iv) Valois DF60 valve, 25° C./75% RH, Initial
# [15] = (iv) Valois DF60 valve, 40° C./75% RH, 1 month
# [16] = (iv) Valois DF60 valve, 40° C./75% RH, 3 months
# [17] = (iv) Valois DF60 valve, 40° C./75% RH, 6 month
# [18] = (v) Bespak valve, 40° C./75% RH, 3 months
# [19] = (vi) Valois DF60 valve, 40° C./75% RH, 3 months
# [20] = (vii) Valois DF60 valve, 40° C./75% RH, 3 months
structure (smiles),measurement,setting,value
"OCc1cc(C(O)CNCCCCCCOCCCCc2ccccc2)ccc1O (stereo not drawn) [salmeterol xinafoate, 4-Hydroxy-α^1-[[[6-(4-phenylbutoxy)hexyl]amino]methyl]-1,3-benzenedimethanol]",Water content,"[1]; (iii) Valois D60 valve, 6.53 mg in 12 g HFA 134a, 30° C./60% RH, Initial",92 ppm
same,Water content,[1]; [3],463 ppm
same,Water content,[1]; [4],412 ppm
same,Water content,[1]; [5],616 ppm
same,Water content,[1]; [6],92 ppm
same,Water content,"[1]; (iv) Valois DF60 valve, 6.53 mg in 12 g HFA 134a, 40° C./75% RH, Initial",81 ppm
same,Water content,[1]; [7],194 ppm
same,Water content,[1]; [8],405 ppm
same,Water content,[1]; [9],446 ppm
same,Water content,[1]; [10],81 ppm
same,Water content,[1]; [11],217 ppm
same,Water content,[1]; [12],434 ppm
same,Water content,[1]; [13],485 ppm
same,Water content,[1]; [14],81 ppm
same,Water content,[1]; [15],360 ppm
same,Water content,[1]; [16],540 ppm
same,Water content,[1]; [17],526 ppm
same,Water content,"[1]; (v) Bespak valve, 6.53 mg in HFA 134a, 40° C./75% RH, Initial",118 ppm
same,Water content,[1]; [18],457 ppm
same,Water content,"[1]; (vi) Valois DF60 valve, 6.53 mg in 12 g HFA 134a, 40° C./75% RH, Initial",213 ppm
same,Water content,[1]; [19],746 ppm
same,Water content,"[1]; (vii) Valois DF60 valve, 6.53 mg in 12 g HFA134a, 40° C./75% RH, Initial",181 ppm
same,Water content,[1]; [20],668 ppm
same,FPM,[2]; [3],7.9 µg
same,FPM,"[2]; (iii) Valois D60 valve, 30° C./60% RH, Initial",10.3 µg
same,FPM,[2]; [4],8.2 µg
same,FPM,[2]; [5],6.2 µg
same,FPM,[2]; [6],10.3 µg
same,FPM,[2]; [7],8.4 µg
same,FPM,[2]; [8],8.3 µg
same,FPM,[2]; [9],7.5 µg
same,FPM,[2]; [10],9.4 µg
same,FPM,[2]; [11],8.4 µg
same,FPM,[2]; [12],8.0 µg
same,FPM,[2]; [13],7.2 µg
same,FPM,[2]; [14],9.4 µg
same,FPM,[2]; [15],7.8 µg
same,FPM,[2]; [16],6.0 µg
same,FPM,[2]; [17],6.2 µg
same,FPM,"[2]; (iv) Valois DF60 valve, 40° C./75% RH, Initial",9.4 µg
same,FPM,[2]; [18],7.0 µg
same,FPM,"[2]; (v) Bespak valve, 40° C./75% RH, Initial",11.3 µg
same,FPM,[2]; [19],6.7 µg
same,FPM,"[2]; (vi) Valois DF60 valve, 40° C./75% RH, Initial",9.5 µg
same,FPM,[2]; [20],7.4 µg
same,FPM,"[2]; (vii) Valois DF60 valve, 40° C./75% RH, Initial",9.6 µg
